Test results from US20100168072A1, “Drug Combinations for the Treatment of Duchenne Muscular Dystrophy” (BIOMARIN IGA LIMITED, priority 2007, published 2010).

Legend:
mdx hearts = details: cited from earlier work
[1] = tested on: Primary cultures of skeletal muscle cells; assay: Primary cultures of skeletal muscle cells treated with GTE and EGCG (MyHC staining, Western blot); assay type: cell-based, mice
Procedure: GTE and EGCG also display unexpected pro myogenic properties. Primary cultures of skeletal muscle cells were established from both normal and dystrophic mice and treated with GTE and EGCG for 1-7 days. […] The amount of myotubes reached similar level with both agents compared to control thereafter. Western-blot analysis was performed on myotube cultures treated for 7 days.

[2] = tested on: Utrophin A promoter linked to a luciferase reporter gene (H2K/mdx/Utro A reporter cell line); assay: Luciferase reporter assay (murine H2K cells); assay type: cell-based; details: Mus musculus; final concentration of 10 μM; incubated for a further 48 hrs
Procedure: The cell line used for the screen is an immortalized mdx mouse H2K cell line that has been stably transfected with a plasmid containing ≈5 kb fragment of the Utrophin A promoter including the first untranslated […] linked to a luciferase reporter gene.
Under conditions of low temperature and interferon containing media, the cells remain as myoblasts. These are plated into 96 well plates and cultured in the presence of compound for three days. The level of luciferase is then determined by cell lysis and reading of the light output from the expressed luciferase gene utilising a plate luminometer.
The H2K/mdx/Utro A reporter cell line was passaged twice a week until ≦30% confluent. The cells were grown at 33° C. in the presence of 10% CO2
To remove the myoblasts for platting, they were incubated with Trypsin/EDTA until the monolayer started to detach.
• DMEM Gibco 41966 • 20% FCS • 1% Pen/Strep • 1% glutamine • 10 mls Chick embryo extract • Interferon(1276 905 Roche) Add fresh 10 μl/50 mls medium
The H2K/mdx/Utro A reporter cell line cells were plated out into 96 well plates (Falcon 353296, white opaque) at a density of approximately 5000 cells/well in 190 μl normal growth medium. The plates were then incubated at 33° C. in the presence of 10% CO2 for 24 hrs.
Compounds were dosed by adding 10 μl of diluted compound to each well giving a final concentration of 10 μM. The plates were then incubated for a further 48 hrs
Cells were then lysed in situ following the manufacture's protocols (Promega Steady-Glo Luciferase Assay System (E2520). Then counted for 10 seconds using a plate luminometer (Victor1420).

[3] = Western blot, myotube cultures treated for 7 days

SMILES: CCCc1nn(C)c2c(=O)[nH]c(-c3cc(S(=O)(=O)N4CCN(C)CC4)ccc3OCC)nc12 [sildenafil]
- myocardial contractile performance (mdx hearts): prevents deterioration

SMILES: O=C(O[C@@H]1Cc2c(O)cc(O)cc2O[C@@H]1c1cc(O)c(O)c(O)c1)c1cc(O)c(O)c(O)c1 [EGCG, epigallocatechin gallate]
- expression of desmin [1, 3]: down-regulated
- expression of muscle-specific proteins (dystrophin in control cultures, sarcomeric alpha actinin, MyHC) [1, 3]: promoted the expression
- myogenin expression [1, 3]: unchanged
- rate of formation of myotubes (in situ staining of MyHC) ([1]; within the first 2-4 days of application, normal and dystrophic mice cells): concentration-dependently stimulated

SMILES: CCC(=O)Nc1cc2nn(-c3ccc(N(CC)CC)cc3)nc2cc1C [Example 14, N-(2-(4-(diethylamino)phenyl)-6-methyl-2H-benzo[d][1,2,3]triazol-5-yl)propionamide]
- activity at 10 µM [2]: < 200%

SMILES: CCN(CC)c1ccc(-n2nc3cc(C)c(NC(=O)c4ccco4)cc3n2)cc1 [Example 18, N-(2-(4-(diethylamino)phenyl)-6-methyl-2H-benzo[d][1,2,3]triazol-5-yl)furan-2-carboxamide]
- activity at 10 µM [2]: < 200%

SMILES: Cc1cc2nn(-c3ccc(Cl)cc3)nc2cc1NC(=O)C(C)C [Example 10, N-(2-(4-chlorophenyl)-6-methyl-2H-benzo[d][1,2,3]triazol-5-yl)isobutyramide]
- activity at 10 µM [2]: 201 to 300%
